For one experiment, the system named is MCF7. Put plainly: Cytotoxicity against human MCF7 cells after 3 days by MTT assay. It counts as functional, cell-based. (In general: Formazan colour is commonly taken as a measure of viable cells.)
The next experiment deals with HCT-8. Put plainly: Cytotoxicity against human HCT8 cells after 3 days by MTT assay. It counts as functional, cell-based.
Experiment [1] deals with T1, DNA topoisomerase 1 (Homo sapiens) (UniProt P11387).
T1 sequence (whole entry): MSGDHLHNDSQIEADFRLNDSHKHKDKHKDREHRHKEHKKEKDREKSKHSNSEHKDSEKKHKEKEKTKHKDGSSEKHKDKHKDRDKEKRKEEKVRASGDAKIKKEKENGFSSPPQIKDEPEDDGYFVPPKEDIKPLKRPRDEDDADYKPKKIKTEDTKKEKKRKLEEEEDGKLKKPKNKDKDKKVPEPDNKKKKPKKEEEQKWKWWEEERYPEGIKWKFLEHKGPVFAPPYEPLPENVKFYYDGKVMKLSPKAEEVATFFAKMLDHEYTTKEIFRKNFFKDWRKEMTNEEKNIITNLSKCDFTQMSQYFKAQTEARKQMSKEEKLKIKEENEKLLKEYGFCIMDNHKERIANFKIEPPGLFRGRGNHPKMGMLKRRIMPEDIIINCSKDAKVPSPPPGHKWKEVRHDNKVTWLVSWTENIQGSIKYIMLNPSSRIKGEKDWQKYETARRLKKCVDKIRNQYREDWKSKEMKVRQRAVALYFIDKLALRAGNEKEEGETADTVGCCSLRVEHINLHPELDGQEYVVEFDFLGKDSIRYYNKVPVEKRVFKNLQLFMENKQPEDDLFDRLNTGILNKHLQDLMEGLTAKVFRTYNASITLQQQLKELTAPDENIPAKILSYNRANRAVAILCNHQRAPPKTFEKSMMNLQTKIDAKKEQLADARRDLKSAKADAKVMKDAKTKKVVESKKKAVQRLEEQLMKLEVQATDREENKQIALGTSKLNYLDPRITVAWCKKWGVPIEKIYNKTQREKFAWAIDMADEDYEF
Kind of experiment: Inhibition of topoisomerase 1-mediated supercoiled pBR322 relaxation assessed as change in band intensity by electrophoresis relative to camptothecin. Further: test concentration or dose not given here.

A further experiment deals with KB. Kind of experiment: Cytotoxicity against human KB cells after 3 days by MTT assay. The format is functional, cell-based.

Where only a bound is given, the exact number is not on record here.

For the molecule `CCc1c2c(nc3ccc(OCC[n+]4cccc(F)c4)cc13)-c1cc3c(c(=O)n1C2)COC(=O)[C@]3(O)CC.[Br-]`, the figures for the IC50 with MCF7, with HCT-8 and with KB were 0.25 nM/ml, 0.1 nM/ml and 0.19 nM/ml, respectively. Besides, the fold change (FC) in experiment [1] turned out to be 1.07.

On to `CCc1c2c(nc3ccc(OCC[n+]4cccc(C)c4)cc13)-c1cc3c(c(=O)n1C2)COC(=O)[C@]3(O)CC.[Br-]`, for which the IC50 was 5.04 nM/ml in the experiment on MCF7, 0.27 nM/ml with HCT-8 and 0.06 nM/ml in the experiment on KB. The fold change (FC) in experiment [1] stood at 1.07.

`CC[C@@]1(O)C(=O)OCc2c1cc1n(c2=O)Cc2cc3ccccc3nc2-1` [CAMPTOTHECIN]: the IC50 is on record as 0.02 nM/ml with MCF7, < 0.013 nM/ml in the experiment on HCT-8 and < 0.013 nM/ml in the experiment with KB. Besides, the fold change (FC) in experiment [1] was found to be 1.

With `CCc1c2c(nc3ccc(OCCC[n+]4cccc(C)c4)cc13)-c1cc3c(c(=O)n1C2)COC(=O)[C@]3(O)CC.[Br-]`, the IC50 with MCF7 was 0.11 nM/ml; in the experiment on HCT-8, < 0.01 nM/ml; in the experiment with KB, < 0.01 nM/ml. Besides, the fold change (FC) in experiment [1] was 0.97.

With `CCc1c2c(nc3ccc(OCC[n+]4cccc(C(C)=O)c4)cc13)-c1cc3c(c(=O)n1C2)COC(=O)[C@]3(O)CC.[Br-]`, the IC50 in the experiment on MCF7 amounted to 0.26 nM/ml; with HCT-8 it was 0.09 nM/ml; with KB, 0.09 nM/ml. In addition, in experiment [1], the fold change (FC) was found to be 0.97.

For the molecule `CC[C@@]1(O)C(=O)OCc2c1cc1n(c2=O)Cc2cc3cc(OCCCOc4cc(C(F)(F)F)ncn4)ccc3nc2-1`, the IC50 with MCF7 and in the experiment with HCT-8 was 0.18 nM/ml each time. Moreover, the fold change (FC) in experiment [1] was 0.67.

For the molecule `CC[C@@]1(O)C(=O)OCc2c1cc1n(c2=O)Cc2cc3c(CN(C)C)c(O)ccc3nc2-1` [TOPOTECAN], the IC50 with MCF7 was found to be 0.15 nM/ml; with HCT-8 it was 0.07 nM/ml; in the experiment on KB, 0.07 nM/ml.

Consider `CCc1c2c(nc3ccc(OCCC[n+]4cccc(F)c4)cc13)-c1cc3c(c(=O)n1C2)COC(=O)[C@]3(O)CC.[Br-]`, for which the IC50 with MCF7 is reported as 1.92 nM/ml; with HCT-8, 0.43 nM/ml; with KB, 1.9 nM/ml. Also, the fold change (FC) in experiment [1] was 0.92.

`CC[C@@]1(O)C(=O)OCc2c1cc1n(c2=O)Cc2cc3cc(OCC[n+]4cccc(C)c4)ccc3nc2-1.[Br-]`: the IC50 in the experiment with HCT-8 came out at 2.95 nM/ml; with KB it was 1.3 nM/ml. For the same molecule, the fold change (FC) in experiment [1] was 1.02.

As to `CC[C@@]1(O)C(=O)OCc2c1cc1n(c2=O)Cc2cc3cc(OCC[n+]4ccccc4)ccc3nc2-1.[Br-]`, the IC50 in the experiment with HCT-8 is given as 0.97 nM/ml; with KB, 0.72 nM/ml. Further, the fold change (FC) in experiment [1] worked out at 1.03.

Take `CCc1c2c(nc3ccc(OCCCn4cnc5cncnc54)cc13)-c1cc3c(c(=O)n1C2)COC(=O)[C@]3(O)CC`: the IC50 is recorded as 1.23 nM/ml in the experiment with MCF7, 0.88 nM/ml with HCT-8 and 0.13 nM/ml with KB. Further, the fold change (FC) in experiment [1] is 0.72.

On to `CC[C@@]1(O)C(=O)OCc2c1cc1n(c2=O)Cc2cc3cc(OCCCn4cncn4)ccc3nc2-1`, for which the IC50 is on record as 0.62 nM/ml in the experiment with MCF7 and 0.9 nM/ml in the experiment on HCT-8. Moreover, in experiment [1], the fold change (FC) was 0.62.

Turning to `CCc1c2c(nc3ccc(OCCCn4ccnc4)cc13)-c1cc3c(c(=O)n1C2)COC(=O)[C@]3(O)CC`, the IC50 with MCF7 came out at 0.16 nM/ml; in the experiment with HCT-8, 0.06 nM/ml; in the experiment on KB, 0.32 nM/ml. In addition, in experiment [1], the fold change (FC) turned out to be 1.01.

Turning to `CCc1c2c(nc3ccc(OCCC[n+]4ccccc4)cc13)-c1cc3c(c(=O)n1C2)COC(=O)[C@]3(O)CC.[Br-]`, the IC50 with MCF7 is 0.14 nM/ml; with HCT-8, 0.04 nM/ml; in the experiment with KB, 0.02 nM/ml. In addition, the fold change (FC) in experiment [1] was found to be 0.96.

Take `CC[C@@]1(O)C(=O)OCc2c1cc1n(c2=O)Cc2cc3cc(OCCCn4ccnc4)ccc3nc2-1`: the values for the IC50 in the experiment with MCF7 and with HCT-8 were 0.38 nM/ml and 0.98 nM/ml, respectively. Moreover, the fold change (FC) in experiment [1] is 0.7.

Regarding `CC[C@@]1(O)C(=O)OCc2c1cc1n(c2=O)Cc2cc3cc(OCC[n+]4cccc(CO)c4)ccc3nc2-1.[Br-]`, the IC50 in the experiment with HCT-8 was determined as 7.49 nM/ml; with KB it was 6.57 nM/ml. In addition, in experiment [1], the fold change (FC) was 0.7.

On to `CCc1c2c(nc3ccc(OCC[n+]4ccccc4)cc13)-c1cc3c(c(=O)n1C2)COC(=O)[C@]3(O)CC.[Br-]`, for which the figures for the IC50 in the experiment with MCF7, in the experiment on HCT-8 and with KB were 1.56 nM/ml, 0.52 nM/ml and 0.08 nM/ml, respectively. Besides, the fold change (FC) in experiment [1] stood at 1.12.

Consider `CCc1c2c(nc3ccc(OCC[n+]4cccc(CO)c4)cc13)-c1cc3c(c(=O)n1C2)COC(=O)[C@]3(O)CC.[Br-]`, for which the figures for the IC50 with MCF7, in the experiment on HCT-8 and in the experiment with KB were 1.74 nM/ml, 0.85 nM/ml and 0.61 nM/ml, respectively. Besides, the fold change (FC) in experiment [1] is 1.02.

With `CCc1c2c(nc3ccc(OCCCOc4cc(C(F)(F)F)ncn4)cc13)-c1cc3c(c(=O)n1C2)COC(=O)[C@]3(O)CC`, the IC50 in the experiment with MCF7 was 0.08 nM/ml; in the experiment on HCT-8 it was 0.07 nM/ml; in the experiment with KB it was 0.02 nM/ml. Also, the fold change (FC) in experiment [1] was 0.59.

`CC[C@@]1(O)C(=O)OCc2c1cc1n(c2=O)Cc2cc3cc(OCCC[n+]4cccc(C)c4)ccc3nc2-1.[Br-]`: the IC50 in the experiment on HCT-8 and in the experiment with KB was < 0.01 nM/ml each time. Also, the fold change (FC) in experiment [1] is 0.72.

Take `CC[C@@]1(O)C(=O)OCc2c1cc1n(c2=O)Cc2cc3cc(OCC[n+]4cccc(C(C)=O)c4)ccc3nc2-1.[Br-]`: the results for the IC50 with HCT-8 and in the experiment with KB were 5.88 nM/ml and 6.28 nM/ml, respectively. Besides, in experiment [1], the fold change (FC) turned out to be 1.04.

Take `CC[C@@]1(O)C(=O)OCc2c1cc1n(c2=O)Cc2cc3cc(OCC[n+]4cccc(F)c4)ccc3nc2-1.[Br-]`: the IC50 in the experiment with HCT-8 was found to be 0.73 nM/ml; with KB, 0.68 nM/ml. For the same molecule, the fold change (FC) in experiment [1] was found to be 0.85.

For `CC[C@@]1(O)C(=O)OCc2c1cc1n(c2=O)Cc2cc3cc(OCCCn4cnc5cncnc54)ccc3nc2-1`, the IC50 with MCF7 was found to be 2.09 nM/ml; with HCT-8, 1.81 nM/ml. In addition, in experiment [1], the fold change (FC) turned out to be 0.61.

On to `CCc1c2c(nc3ccc(OCCC[n+]4cccc(CO)c4)cc13)-c1cc3c(c(=O)n1C2)COC(=O)[C@]3(O)CC.[Br-]`, for which the IC50 amounted to 1.38 nM/ml with MCF7, 0.13 nM/ml in the experiment on HCT-8 and 0.52 nM/ml in the experiment on KB. Further, the fold change (FC) in experiment [1] came out at 0.95.

For the molecule `CC[C@@]1(O)C(=O)OCc2c1cc1n(c2=O)Cc2cc3cc(OCCC[n+]4ccccc4)ccc3nc2-1.[Br-]`, the IC50 in the experiment on HCT-8 is given as 0.07 nM/ml; with KB, 0.06 nM/ml. Moreover, in experiment [1], the fold change (FC) was 0.7.

With `CCc1c2c(nc3ccc(OCCCn4cncn4)cc13)-c1cc3c(c(=O)n1C2)COC(=O)[C@]3(O)CC`, the IC50 in the experiment with MCF7 worked out at 0.08 nM/ml; in the experiment on HCT-8, 0.04 nM/ml; with KB, 0.04 nM/ml. Besides, the fold change (FC) in experiment [1] worked out at 0.64.

In the case of `CCc1c2c(nc3ccc(OCCC[n+]4cccc(C(C)=O)c4)cc13)-c1cc3c(c(=O)n1C2)COC(=O)[C@]3(O)CC.[Br-]`, the IC50 was determined as 2.81 nM/ml in the experiment with MCF7, 2.24 nM/ml in the experiment with HCT-8 and 4.82 nM/ml in the experiment with KB. For the same molecule, in experiment [1], the fold change (FC) is 0.86.
